Measured values reported in ChEMBL document CHEMBL5252512, “Recent Progress in the Development of HIV-1 Protease Inhibitors for the Treatment of HIV/AIDS” (J Med Chem, 2016).

Key:
[1] = system: Human immunodeficiency virus 1; experiment: Antiviral activity against multidrug-resistant HIV1-MM infected in phytohemagglutinin-activated human PBMC cells assessed as inhibition of virus-induced cytopathic effect measured after 7 days by MTT assay; type: functional, organism-based; conditions: Human immunodeficiency virus 1, MM, 168 h
[2] = system: Human immunodeficiency virus 1; experiment: Antiviral activity against multidrug-resistant HIV1-G infected in phytohemagglutinin-activated human PBMC cells assessed as inhibition of virus-induced cytopathic effect measured after 7 days by MTT assay; type: functional, organism-based; conditions: Human immunodeficiency virus 1, G, 168 h
[3] = system: Human immunodeficiency virus 1; experiment: Antiviral activity against multidrug-resistant HIV1-JSL infected in phytohemagglutinin-activated human PBMC cells assessed as inhibition of virus-induced cytopathic effect measured after 7 days by MTT assay; type: functional, organism-based; conditions: Human immunodeficiency virus 1, JSL, 168 h
[4] = system: Human immunodeficiency virus 1; experiment: Antiviral activity against multidrug-resistant HIV1-TM infected in phytohemagglutinin-activated human PBMC cells assessed as inhibition of virus-induced cytopathic effect measured after 7 days by MTT assay; type: functional, organism-based; conditions: Human immunodeficiency virus 1, TM, 168 h
[5] = system: Human immunodeficiency virus 1; experiment: Antiviral activity against wild type HIV1 ERS104pre infected in human PBMC cells assessed as inhibition of virus-induced cytopathic effect measured after 7 days by MTT assay; type: functional, organism-based; conditions: Human immunodeficiency virus 1, ERS104pre, 168 h
[6] = system: Human immunodeficiency virus 1; experiment: Antiviral activity against multidrug-resistant HIV1-C infected in phytohemagglutinin-activated human PBMC cells assessed as inhibition of virus-induced cytopathic effect measured after 7 days by MTT assay; type: functional, organism-based; conditions: Human immunodeficiency virus 1, C, 168 h
[7] = system: Human immunodeficiency virus 1; experiment: Antiviral activity against multidrug-resistant HIV1-B infected in phytohemagglutinin-activated human PBMC cells assessed as inhibition of virus-induced cytopathic effect measured after 7 days by MTT assay; type: functional, organism-based; conditions: Human immunodeficiency virus 1, B, 168 h
[8] = system: Human immunodeficiency virus 1; experiment: Antiviral activity against darunavir-resistant HIV1 20P infected in phytohemagglutinin-activated human PBMC cells assessed as inhibition of virus-induced cytopathic effect measured after 7 days by MTT assay; type: functional, organism-based; conditions: Human immunodeficiency virus 1, 20P, 168 h
[9] = system: Human immunodeficiency virus 1; experiment: Antiviral activity against darunavir-resistant HIV1 10P infected in phytohemagglutinin-activated human PBMC cells assessed as inhibition of virus-induced cytopathic effect measured after 7 days by MTT assay; type: functional, organism-based; conditions: Human immunodeficiency virus 1, 10P, 168 h
[10] = biological target: T1, Human immunodeficiency virus type 1 protease (Human immunodeficiency virus 1, UniProt Q72874); experiment: Inhibition of recombinant HIV1 Protease
[11] = biological target: T1, Human immunodeficiency virus type 1 protease; experiment: Binding affinity to HIV1 protease assessed as inhibition constant
[12] = system: Human immunodeficiency virus 1; experiment: Ratio of EC50 for antiviral activity against HIV1-JSL to EC50 for antiviral activity against wild type HIV1 ERS104pre; type: functional
[13] = system: Human immunodeficiency virus 1; experiment: Ratio of EC50 for antiviral activity against HIV1-MM to EC50 for antiviral activity against wild type HIV1 ERS104pre; type: functional
[14] = system: Human immunodeficiency virus 1; experiment: Ratio of EC50 for antiviral activity against HIV1-G to EC50 for antiviral activity against wild type HIV1 ERS104pre; type: functional
[15] = system: Human immunodeficiency virus 1; experiment: Ratio of EC50 for antiviral activity against HIV1-B to EC50 for antiviral activity against wild type HIV1 ERS104pre; type: functional
[16] = system: Human immunodeficiency virus 1; experiment: Ratio of EC50 for antiviral activity against HIV1-C to EC50 for antiviral activity against wild type HIV1 ERS104pre; type: functional
[17] = system: Human immunodeficiency virus 1; experiment: Ratio of EC50 for antiviral activity against HIV1-TM to EC50 for antiviral activity against wild type HIV1 ERS104pre; type: functional
[18] = biological target: T1, Human immunodeficiency virus type 1 protease; experiment: Binding affinity to wild-type HIV1 protease expressed in Escherichia coli by fluorometric assay

In the case of `CC(C)(C)NC(=O)[C@@H]1C[C@@H]2CCCC[C@@H]2CN1C[C@@H](O)[C@H](Cc1ccccc1)NC(=O)[C@H](CC(N)=O)NC(=O)c1ccc2ccccc2n1`, the EC50 [1] is reported as 0.11 µM, the EC50 [2] is reported as 0.033 µM and the EC50 [3] is reported as 0.29 µM. The EC50 [4] was 0.1 µM, the EC50 [5] was 0.004 µM and the EC50 [6] was 0.035 µM. It also gave an EC50 [7] of 0.27 µM.
`CC(C)CN(C[C@@H](O)[C@H](Cc1ccccc1)NC(=O)O[C@H]1CCOC1)S(=O)(=O)c1ccc(N)cc1` showed an EC50 [1] of 0.27 µM, an EC50 [2] of 0.31 µM and an EC50 [8] of over 1 µM. The EC50 [3] was 0.43 µM, the EC50 [9] was over 1 µM and the EC50 [4] was 0.3 µM. For the same compound, the EC50 [5] was 0.029 µM, the EC50 [6] was 0.21 µM and the EC50 [7] was 0.36 µM.
Work on `COc1ccc(S(=O)(=O)N(CC(C)C)C[C@@H](O)[C@H](Cc2ccccc2)n2cc(CNC(=O)c3ccc(CNC(=O)OC(C)(C)C)cc3)nn2)cc1` yielded an IC50 [10] of 0.013 µM and a Ki [11] of 0.004 µM.
`CC(C)CN(C[C@@H](O)[C@H](Cc1ccccc1)NC(=O)O[C@H]1CO[C@H]2OCC[C@H]21)S(=O)(=O)c1ccc2c(c1)OCO2` was tested, and the EC50 [1] was 0.0038 µM, the “Ratio EC50” value [12] was 12 and the EC50 [2] was 0.0034 µM. The “Ratio EC50” value [13] was 8, the “Ratio EC50” value [14] was 7 and the “Ratio EC50” value [15] was 8. The “Ratio EC50” value [16] was 5, the EC50 [3] was 0.006 µM and the EC50 [4] was 0.0032 µM. The EC50 [5] was 0.0005 µM, the EC50 [6] was 0.0027 µM and the EC50 [7] was 0.0039 µM. The “Ratio EC50” value [17] was 6.
`C[C@H](Cc1cc2c(cc1O)OCO2)[C@H](C)Cc1cc2c(cc1O)OCO2` showed an IC50 [10] of 5.6 µM.
`COc1ccc(S(=O)(=O)N(CC(C)C)C[C@@H](O)[C@H](Cc2ccccc2)n2cc(COC(=O)N[C@H]3c4ccccc4C[C@H]3O)nn2)cc1` gave an IC50 [10] of 0.006 µM and a Ki [11] of 0.0017 µM.
`CC(C)C[C@H](NC(=O)[C@@H](NC(=O)CCCCCCCCCCCCCCC(=O)N[C@@H](CC(N)=O)C(=O)N[C@@H](Cc1ccccc1)C(=O)O)[C@@H](C)O)C(=O)NCCc1ccc(Oc2ccc(O)cc2)cc1` gave an IC50 [10] of 0.096 µM.
Compound `O=S1(=O)N(Cc2ccccc2-c2cc3ccccc3o2)C[C@H](O)[C@@H](O)CN1Cc1ccccc1-c1cc2ccccc2o1` has a Ki [18] of 0.53 µM.
In the case of `NC(=O)CN(Cc1ccc(N)cc1)C(=O)CN(CC1CCCCC1)C(=O)CN(Cc1ccc(N)cc1)C(=O)CCCCCCCCCCCCCCC(=O)N(CC(=O)N(CC(=O)O)Cc1ccccc1)Cc1ccc(N)cc1`, the Ki [11] is reported as 0.135 µM.
`O=C(Cc1cccc2ccccc12)Nc1ccccc1CN1C[C@H](O)[C@@H](O)CN(Cc2ccccc2Br)S1(=O)=O` showed a Ki [18] of 0.28 µM.
`CC(C)C[C@H](NC(=O)[C@@H](NC(=O)CCCCCCCCCCCCCCC(=O)N[C@@H](CC(N)=O)C(=O)N[C@@H](Cc1ccccc1)C(=O)O)[C@@H](C)O)C(=O)NCCc1cccc(O)c1` gave an IC50 [10] of 1.13 µM.
For `O=C(Cc1cccc2ccccc12)O[C@H]1CNC[C@@H]1OC(=O)Cc1cccc2ccccc12`, the Ki [11] was 20 µM.
`COC(=O)[C@@H](NC(=O)[C@H](CC(C)C)NC(=O)[C@@H](NC(=O)CCCOc1ccc2ccc(OCCCC(=O)N[C@H](CCCCNC(=O)OCc3ccccc3)C(=O)NNC(=O)c3cc(NC(C)=O)ccc3OC)cc2c1)C(C)C)C(C)C` showed a Ki [11] of 0.06 µM.
Compound `O=C(Cc1cccc2ccccc12)Nc1ccccc1CN1C[C@H](O)[C@@H](O)CN(Cc2ccccc2)S1(=O)=O` has a Ki [18] of 0.14 µM.
